Common to all, as to assay: Preemergent control of plant species
The test system of one assay is yellow nutsedge. The assay is classed as in vivo, Cyperus esculentus. The settings on record: Cyperus, pre-emergence, 336 h; 0.25 lb/acre; read-out: percent preemergent control. On the procedure:
(§1) The seeds of various species of plants were planted in beds of good agricultural soil in a greenhouse. A number of compositions of the present invention, generally in the nature of an aqueous emulsion, were applied at rates listed in the table so as to deposit a predetermined amount of active ingredients uniformly throughout the surface of the bed. Another seed bed was treated only with water to serve as a control. After treatment the seed beds were maintained for two weeks under greenhouse conditions conducive for good plant growth and watered as necessary. Control refers to the reduction in growth compared to the observed results of the same untreated species.

A further assay concerns sorghum. It counts as in vivo, Sorghum vulgare. The settings on record: Sorghum, pre-emergence, 336 h; 0.25 lb/acre; read-out: percent preemergent control. On the procedure:
as §1

The subject of a further assay is sugar beet. The assay is classed as in vivo, Beta saccharifera. Particulars: Beta vulgaris, pre-emergence, 336 h; 0.25 lb/acre; read-out: percent preemergent control. Here is the method: as §1
The next assay has as its system barnyardgrass. The assay is classed as in vivo, Echinochloa crusgalli. The settings on record: Echinochloa crus-galli, pre-emergence, 336 h; 0.25 lb/acre; read-out: percent preemergent control. On the procedure: as §1
A further assay concerns johnson grass. It counts as in vivo, Sorghum halepense. The settings on record: Sorghum halepense, pre-emergence, 336 h; 0.25 lb/acre; read-out: percent preemergent control. On the procedure: as §1
The next assay relates to annual morning glory. The assay is classed as in vivo, Ipomoea spp. Particulars: Ipomoea, pre-emergence, 336 h; 0.25 lb/acre; read-out: percent preemergent control. On the procedure:
as §1

Another assay concerns yellow foxtail. It counts as in vivo, Setaria lutescens. The settings on record: Setaria, pre-emergence, 336 h; 0.25 lb/acre; read-out: percent preemergent control. On the procedure: as §1
In another assay the test system is rice. The assay is classed as in vivo, Oryza sativa. The settings on record: Oryza sativa, pre-emergence, 336 h; 0.25 lb/acre; read-out: percent preemergent control. Here is the method:
as §1

A further assay has as its system jimsonweed. The assay is classed as in vivo, Datura stramonium. The settings on record: Datura stramonium, pre-emergence, 336 h; 0.25 lb/acre; read-out: percent preemergent control. On the procedure: as §1
The subject of another assay is wheat. It counts as in vivo, Triticum aestivum. The settings on record: Triticum aestivum, pre-emergence, 336 h; 0.25 lb/acre; read-out: percent preemergent control. Here is the method: as §1
Another assay relates to cotton. It counts as in vivo, Gossypium spp. The settings on record: Gossypium hirsutum, pre-emergence, 336 h; 0.25 lb/acre; read-out: percent preemergent control. Here is the method:
as §1

For another assay, the system named is rape. The assay is classed as in vivo, Brassica napus. The settings on record: Brassica napus, pre-emergence, 336 h; 0.25 lb/acre; read-out: percent preemergent control. Here is the method:
as §1

The next assay deals with velvetleaf. It counts as in vivo, Abutilon theophrasti. Particulars: Abutilon theophrasti, pre-emergence, 336 h; 0.25 lb/acre; read-out: percent preemergent control. Here is the method:
as §1

For a further assay, the system named is corn. It counts as in vivo, Zea mays. The settings on record: Zea mays, pre-emergence, 336 h; 0.25 lb/acre; read-out: percent preemergent control. On the procedure: as §1
In another assay the test system is soybean. The assay is classed as in vivo, Glycine max. Particulars: Glycine max, pre-emergence, 336 h; 0.25 lb/acre; read-out: percent preemergent control. On the procedure: as §1

These results are taken from patent publication US4740233A, “Substituted 1,2,4-triazolo[1,5-a]-pyrimidine-2-sulfonamides and compositions and methods of controlling undesired vegetation and suppressing the nitrification of ammonium nitrogen in soil” (The Dow Chemical Company, priority 1986, dated 1988).

SMILES strings stand for the structures.

As for `Cc1ccn2nc(S(=O)(=O)N(C(=O)C(C)(C)C)c3c(F)cccc3F)nc2n1` [Compound 280], the pest or weed control at 280.212 g/ha in the assay on yellow nutsedge amounted to 100%; in the assay on barnyardgrass, 100%; with johnson grass, 90%; with annual morning glory it was 90%; in the assay with yellow foxtail it was 100%; in the assay on jimsonweed, 100%. Moreover, the pest or weed control at 280.212 g/ha in the assay with velvetleaf was 100%. For the same molecule, the plant injury at 280.212 g/ha in the assay on sorghum is 100%; with sugar beet, 100%; in the assay with rice it was 50%; in the assay with wheat it was 60%; in the assay with cotton, 80%; in the assay on rape it was 100%. For the same molecule, the values for the plant injury at 280.212 g/ha in the assay on corn and with soybean were 50% and 10%, respectively.

Consider `COc1nc2nc(S(=O)(=O)Nc3c(C)cccc3[N+](=O)[O-])nn2cc1C` [Compound 221], for which the pest or weed control at 280.212 g/ha turned out to be 100% in the assay on yellow nutsedge; 100% in the assay with barnyardgrass; 70% with johnson grass; 100% in the assay with annual morning glory; 100% in the assay on yellow foxtail; 100% in the assay on jimsonweed. In addition, the pest or weed control at 280.212 g/ha in the assay on velvetleaf was determined as 100%. The plant injury at 280.212 g/ha in the assay with sorghum was determined as 100%; in the assay on sugar beet, 100%; in the assay on rice, 100%; in the assay on wheat it was 90%; with cotton, 100%; with rape, 100%. The plant injury at 280.212 g/ha with corn was determined as 90%; with soybean, 100%.

Take `COc1cccc(C(F)(F)F)c1NS(=O)(=O)c1nc2ncccn2n1` [Compound 141]: the pest or weed control at 280.212 g/ha in the assay on yellow nutsedge was found to be 75%; in the assay with barnyardgrass, 95%; in the assay with johnson grass it was 100%; in the assay with annual morning glory it was 100%; in the assay with yellow foxtail it was 100%; in the assay with jimsonweed, 100%. Besides, in the assay with velvetleaf, the pest or weed control at 280.212 g/ha stood at 100%. The plant injury at 280.212 g/ha came out at 100% in the assay on sorghum; 100% with sugar beet; 100% with rice; 95% in the assay with wheat; 100% in the assay on cotton; 100% in the assay with rape. Moreover, the plant injury at 280.212 g/ha in the assay with corn and in the assay on soybean was 100% in each case.

`COc1nc2nc(S(=O)(=O)Nc3c([N+](=O)[O-])ccc(C)c3C)nn2cc1C` [Compound 222]: the pest or weed control at 280.212 g/ha in the assay on yellow nutsedge worked out at 50%; with barnyardgrass it was 0%; in the assay with johnson grass it was 100%; in the assay on annual morning glory, 90%; in the assay with yellow foxtail, 30%; with jimsonweed, 100%. In addition, the pest or weed control at 280.212 g/ha in the assay with velvetleaf was 100%. Further, the plant injury at 280.212 g/ha with sorghum was determined as 50%; in the assay with sugar beet, 100%; with rice, 90%; in the assay with wheat, 0%; in the assay on cotton, 100%; in the assay with rape, 100%. Also, the plant injury at 280.212 g/ha was 40% in the assay with corn and 100% in the assay on soybean.

`COc1cccc(F)c1NS(=O)(=O)c1nc2nc(C)ccn2n1` [Compound 171]: the pest or weed control at 280.212 g/ha came out at 80% in the assay on yellow nutsedge; 100% with barnyardgrass; 100% in the assay with johnson grass; 50% with annual morning glory; 100% in the assay with yellow foxtail; 20% in the assay on jimsonweed. Besides, in the assay with velvetleaf, the pest or weed control at 280.212 g/ha was 90%. The plant injury at 280.212 g/ha with sorghum stood at 100%; in the assay on sugar beet, 100%; with rice, 90%; in the assay with wheat, 50%; in the assay on cotton, 70%; in the assay with rape, 100%. In addition, the plant injury at 280.212 g/ha was 40% in the assay with corn and 20% in the assay with soybean.

On to `C=C(C)C(=O)N(c1c(F)cccc1F)S(=O)(=O)c1nc2nc(C)ccn2n1` [Compound 286], for which the pest or weed control at 280.212 g/ha with yellow nutsedge, in the assay with barnyardgrass, with johnson grass, with annual morning glory, in the assay with yellow foxtail and in the assay on jimsonweed was 100% each time. Besides, the pest or weed control at 280.212 g/ha in the assay on velvetleaf was determined as 100%. Besides, the plant injury at 280.212 g/ha in the assay with sorghum amounted to 100%; in the assay with sugar beet it was 100%; with rice, 100%; in the assay on wheat, 70%; in the assay on cotton it was 100%; in the assay with rape it was 100%. Moreover, the plant injury at 280.212 g/ha was determined as 50% in the assay on corn and 30% in the assay on soybean.

As to `CCCC(=O)N(c1c(F)cccc1F)S(=O)(=O)c1nc2nc(C)ccn2n1` [Compound 283], the pest or weed control at 280.212 g/ha came to 100% in the assay on yellow nutsedge; 100% with barnyardgrass; 100% in the assay on johnson grass; 80% with annual morning glory; 100% with yellow foxtail; 95% with jimsonweed. The pest or weed control at 280.212 g/ha in the assay on velvetleaf worked out at 100%. Besides, the plant injury at 280.212 g/ha with sorghum, with sugar beet, in the assay with rice, in the assay with wheat, in the assay with cotton and with rape was 100% in each case. Moreover, the plant injury at 280.212 g/ha in the assay on corn amounted to 40%; with soybean, 20%.

For the molecule `COc1nc2nc(S(=O)(=O)Nc3c(C)cccc3Cl)nn2cc1C` [Compound 220], the pest or weed control at 280.212 g/ha was 100% with yellow nutsedge; 90% with barnyardgrass; 100% in the assay on johnson grass; 70% in the assay with annual morning glory; 100% in the assay on yellow foxtail; 100% in the assay with jimsonweed. In the assay with velvetleaf, the pest or weed control at 280.212 g/ha amounted to 100%. Also, the plant injury at 280.212 g/ha in the assay on sorghum stood at 100%; in the assay with sugar beet, 100%; with rice it was 50%; in the assay on wheat, 100%; with cotton, 100%; in the assay on rape, 100%. Moreover, the plant injury at 280.212 g/ha with corn turned out to be 100%; in the assay with soybean, 90%.

As for `COC(=O)c1cccc(C)c1NS(=O)(=O)c1nc2nccc(C)n2n1` [Compound 189], the pest or weed control at 280.212 g/ha was determined as 100% in the assay on yellow nutsedge; 80% with barnyardgrass; 70% in the assay with johnson grass; 50% in the assay with annual morning glory; 80% in the assay with yellow foxtail; 80% in the assay with jimsonweed. Besides, the pest or weed control at 280.212 g/ha in the assay on velvetleaf is 100%. Besides, the plant injury at 280.212 g/ha in the assay with sorghum is 100%; in the assay with sugar beet, 100%; in the assay on rice it was 90%; in the assay with wheat, 80%; in the assay on cotton it was 100%; in the assay on rape, 100%. Further, the plant injury at 280.212 g/ha in the assay on corn and in the assay with soybean was 80% throughout.
